{
  "source": "paper PMC10319809",
  "about": "“Chronic UCN2 treatment desensitizes CRHR2 and improves insulin sensitivity” (Nature Communications, 2023)",
  "key": {"mouse soleus muscle": {"test_system": "mouse soleus muscle", "test": "Ex vivo soleus muscle [3H]2-deoxyglucose uptake", "description": "(§1) Soleus muscle was removed from fed animals anesthetized by an intraperitoneal injection of pentobarbital (10 mg/100 g body weight). Dissected soleus muscles were suspended at 5 mN of tension in incubation chambers (Model 610/820 M, Danish Myo-Technology, Denmark) containing Krebs-Ringer-Buffer supplemented with 0.1% BSA, 2 mM pyruvate and 8 mM Mannitol. During the entire incubation period the KRB was maintained at 30 °C and oxygenated with 95% O2 and 5% CO2. Following 10 min of pre-incubation muscles were incubated in Krebs buffer +/− 100 nM (−7.0 log[M]) UCN2. At the next time point, 30 min later, muscles were placed in baths containing Krebs buffer +/− 100 nM (−7.0 [M]) UCN2. At the next time point, 15 min later, muscles were placed in baths containing Krebs buffer +/− 100 nM (−7.0 log[M]) UCN2 + /− 60 nM Insulin (Actrapid, Novo Nordisk, Bagsvaerd, Denmark) for 15 min. For the ex vivo glucose uptake studies, 1 mM [^3H]2-deoxyglucose (Perkin-Elmer) and 7 mM [^14C]mannitol (Perkin-Elmer) was also added at this time. Muscles that were in saline in the first bath, saline in the second bath, and saline in the third bath were assigned to the SSS group. Muscles that were in saline in the first bath, saline in the second bath, and UCN2 in the third bath were assigned to the SSU group. Muscles that were in UCN2 in the first bath, saline in the second bath, and UCN2 in the third bath were assigned to the USU group. Muscles that were in saline in the first bath, UCN2 in the second bath, and UCN2 in the third bath were assigned to the SUU group. Following incubation, muscles were harvested, washed in ice-cold KRB and immediately frozen in liquid nitrogen.\nGlucose uptake was determined in muscle protein lysates by assessing the accumulation of [^3H]2-deoxyglucose with the use of [^14C]mannitol to correct for the extracellular space. Radioactivity was measured by liquid scintillation counting."}, "[1]": {"test_system": "AKT1S1, IRS1, AKT phosphorylation", "test": "Ex vivo soleus muscle insulin signaling (Western blot)", "set-up": "species or system mouse", "details": "100 nM UCN2 pre-treatment, n = 2", "description": "as §1, with “Muscles that were in UCN2 in the first bath, saline in the second bath, and UCN2 in the third bath were assigned to the USU group. Muscles that were in saline in the first bath, UCN2 in the second bath, and UCN2 in the third bath were assigned to the SUU group. Following incubation, muscles were harvested, washed in ice-cold KRB and immediately frozen in liquid nitrogen.” left out"}, "male mice [2]": {"test_system": "male mice", "test": "Plasma insulin during glucose tolerance test", "type": "in vivo, mouse", "details": "1 mg/kg IP UCN2", "description": "(§2) All metabolic tests were performed using standard protocols on male littermates (aged: 10–14 weeks). For glucose tolerance tests (GTTs), animals were fasted for 8 h with ad libitum access to water. Fasting glucose measurements were taken before […] oral glucose dose. Blood glucose measurements were taken via tail nick using the AlphaTRAK 2 Glucose Monitoring System (Zoetis, Parsippany-Troy Hills, NJ) at 10, 30, 60, and 120 min after dose. Blood was collected for insulin measurement in EDTA tubes (Becton, Dickinson and Company, Franklin Lakes, NJ) and centrifuged to collect plasma (2000 g for 10 min at 4 °C), which was stored at −80 °C until analysis at 10, 30, 60, and 120 min after dose. Insulin levels were measured using an Ultrasensitive Mouse Insulin ELISA (ALPCO, Salem, NH), according to manufacturer’s instructions. For insulin tolerance tests (ITTs), animals were fasted for 8 h and blood glucose was measured before (0 min) and at 30, 60, 90, and 120 min following IP injection of 0.75 IU/kg of insulin (Humulin R, Eli Lilly, Indianapolis, IN). […]"}, "male mice [3]": {"test_system": "male mice", "test": "Insulin tolerance test (ITT), blood glucose", "type": "in vivo, mouse", "set-up": "dose or concentration left out as unconfirmed", "details": "0.05, 0.2", "description": "as §2"}},
  "note": "Values joined by “and” are separate entries in the source; they are usually repeats but may differ in a detail not shown here. Equal entries are not always repeated. Where no end group is shown, it is not given here.",
  "data": [
    {"substance": "IVLSLDVPIGLLQILLEQARARAAREQATTNARILARVGHC-NH2 (C-terminus assumed) [UCN2, Urocortin 2]", "values": [
      {"measurement": "2DG Uptake", "setting": "mouse soleus muscle; Fig 6C, UCN2 without insulin, individual muscles", "value": "0.55 µmol/g/h and 1.85 µmol/g/h and 0.61 µmol/g/h and 0.24 µmol/g/h and 0.63 µmol/g/h"},
      {"measurement": "insulin-mediated glucose uptake, acute treatment ex vivo", "setting": "mouse soleus muscle; soleus muscle, 100 nM UCN2, 60 nM insulin", "value": "sufficient to blunt insulin-mediated glucose uptake"},
      {"measurement": "insulin-mediated glucose uptake after UCN2 pre-treatment ex vivo", "setting": "mouse soleus muscle; soleus muscle, 100 nM UCN2 pre-treatment (SUU, USU) versus acute (SSU)", "value": "increased insulin-mediated glucose uptake relative to acute UCN2 treatment"},
      {"measurement": "AKT1S1, IRS1 and AKT phosphorylation after UCN2 pre-treatment ex vivo", "setting": "[1]", "value": "increased AKT1S1, IRS1, and AKT phosphorylation"},
      {"measurement": "plasma insulin levels during the oGTT versus vehicle", "setting": "male mice [2]", "value": "No significant difference"},
      {"measurement": "effect of increasing doses in ITT", "setting": "male mice [3]", "value": "decreasing rates of glucose uptake in response to insulin injection"}
    ]}
  ]
}
